Test results as given in patent US12071624B2, “Antisense oligonucleotide targeting ARL4C molecule, and nucleic acid drug using antisense oligonucleotide” (OSAKA UNIVERSITY, priority 2018, dated 2024).
[AmNA] = 2',4'-bridged nucleic acid with N-methyl amide bridge (AmNA); d = 2'-deoxy (DNA)

Columns and labels:
[1] = tested on: HLE cells; test: Cell proliferation assay (CyQUANT NF) in HLE cells; assay type: cell-based; details: HLE cells transfected with ASO at 25 nM
Experimental: HLE cells, HCT116 cells, and A549 cells were transfected with 25 to 50 nM ASO and 10 to 20 nM siRNA using Lipofectamine 3000 (Invitrogen, Carlsbad, CA, USA) or RNAiMAX (Invitrogen). Transfected cells were used in the experiments 36 to 48 hours after the end of the transfection.
The cell proliferation assays were performed using the CyQUANT NF Cell Proliferation Assay Kits (Thermo Fisher Scientific), in the way recommended by the manufacturer.
HLE cells were transfected with control ASO, ASO-1316 and ASO-3223 at 25 nM and a proliferation assay was performed; the results of the assay are shown in (e) of FIG. 4.
HLE cells were transfected with control siRNA and PIK3CD siRNA (siRNA against PIK3CD) at 20 nM, and a proliferation assay was performed; the results are shown in (e) of FIG. 5. In addition, an anti-phosphorylated AKT antibody and an anti-AKT antibody as probes were caused to act on cell lysates of HLE cells transfected with control siRNA and PIK3CD siRNA; the results are shown in FIG. 5 (f). HLE cells were transfected with control siRNA and PIK3CD siRNA (siRNA against PIK3CD) at 20 nM and the PIK3CD mRNA amount was measured by real-time PCR; the results are shown in (c) of FIG. 7.

[2] = tested on: neurolysin (NLN) mRNA; test: Off-target gene mRNA by real-time PCR in HLE cells (NLN); assay type: cell-based, human; details: HLE cells transfected at 25 nM
Experimental: Potential off-target genes in ARL4C ASO (hARL4C ASO-1316-AmNA [15-mer] (ARL4C ASO-1316) and hARL4C-3223-AmNA [19-mer] (ARL4C ASO-3223)) were identified by using database “Human Genomic plus Transcript (Human G+T)” (Build 2.7.1) as well as basic local alignment search tools (BLAST+programs) using MegaBlast algorithm.
Cell migration assays and quantitative real-time PCR analyses were performed according to the methods reported by Fujii S et al. (Oncogene 2015; 34: 4834-44).
Four genes of neurolysin (NLN), sapiens F-box and leucine-rich repeat protein 19 (FBXL19), keratin-associated protein 15-1 (KRTAP15-1), and sialic acid binding Ig-like lectin 6 (SIGLEC6) were identified as candidates for off-target genes of ASO-1316 and ASO-3223 by in silico analysis. HLE cells were transfected with ASO-1316 and ASO-3223 at 25 nM each, and mRNA amounts of NLN and FBXL19 were measured by real-time PCR; the results are shown in (d) of FIG. 3. […] In addition, KRTAP15-1 and SIGLEC6 were only slightly expressed in the HLE cells (data not shown).

[3] = tested on: A549/Luc cells; test: Xenograft orthotopic transplantation model using lung cancer cells; assay type: in vivo, mouse
Experimental: Eight-week-old male nude mice (BALB/cAJcl-nu/nu, CLEA Japan, Inc.) were intraperitoneally injected with medetomidine (0.75 mg/kg), midazolam (4 mg/kg), and butorphanol (5 mg/kg) so as to be anesthetized. The xenograft orthotopic transplantation model was formed by transplanting human lung cancer cells into the left lungs of mice in the following order. A549/Luc cells (approximately 2×10^6 cells) were suspended in 10 μl of PBS (phosphate buffered saline) and 10 μl of Matrigel (BD Biosciences, San Jose, CA, USA), and a 29 G needle attached to a 0.5 ml insulin syringe (BD Biosciences, San Jose, CA, USA) was used to inject the same through the intercostal space to a depth of 2 mm in the left lung. The incision in the skin was closed with a 5-0 polypropylene suture, and the mice were rested on a warm carpet until they were fully recovered.
One week after the tumor transplantation, tumor establishment was confirmed using an IVIS imaging system (Xenogen Corp., Alameda, CA, USA). In the in-vivo imaging, 100 μl of VivoGlo luciferin (30 mg/ml) was administered via the tail vein, and bioluminescence imaging was recorded 5 minutes after the administration. Mice with established tumors were then divided into two groups, a control ASO inhalation group (n=7) and an ARL4C ASO inhalation group (n=9) in such a manner that the groups had identical IVIS signal intensities. […] When 21 days elapsed after the tumor transplantation, tumor sizes were determined using the IVIS imaging system, and then the mice were euthanized for histological analysis. […]
In an experiment in a xenograft orthotopic transplantation model using lung cancer cells, A549/Luc cells were transplanted into the left lung (day 0), and transbronchial administration of control ASO and ARL4C ASO-1316 was carried out when 7, 11 and 15 days had elapsed after the transplantation. […] In addition, when 7 and 21 days had elapsed since the transplantation, luminescence intensities of luciferase emitted from tumors in the left lungs in the mice were measured using software of IVIS/Kodak; the results are shown in the right part of (a) of FIG. 11. […]

Row | Substance | cell proliferation [1] | NLN mRNA amount (off-target) [2] | proliferation of A549/Luc cells in left lung (luciferase luminescence intensity) ([3]; 200 μg/body transbronchially on days 7, 11 and 15, days 7 and 21) | Ki-67-positive cells in left lung tumor ([3]; day 21) | expression of ARL4C in left lung tumor (immunostaining) ([3]; day 21)
1 | ASO-1316: 15-mer AmNA/phosphorothioate ASO targeting ARL4C, base sequence SEQ ID NO: 1 gcatacctcaggtaa; Table 1 SEQ ID NO 13 (antisense GCATACCTCAGGTAA; AmNA and phosphorothioate modified, pattern not given here) | inhibit HLE cells from proliferating | did not significantly affect the expression | inhibited A549/Luc cells from proliferating | Ki-67-positive cells decreased in number | decreased expression of ARL4C
2 | ASO-3223: 19-mer ARL4C ASO of Table 1, SEQ ID NO 55 (antisense NNNGGTTACAGTATTTNNC; sugars from the 5' end [AmNA]3 d13 [AmNA]2 d1, backbone, methylation of C and the base at N not given here; further chemistry not fully specified) | inhibit HLE cells from proliferating | did not significantly affect the expression | – | – | –
